Laboratory results reported in ChEMBL document CHEMBL1201862, “PubChem BioAssay data set” (2004).
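Test compounds were applied to cells in 96-well plates for 48 hours at 5 doses. GI50 marks 50% less growth.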 Activity calls are given as the source filed them. Rule as the data show it: active = GI50 up to about 1.1 µM and inactive = higher.

Assays:
Test in all cases: NCI anticancer screen, dose series, 48 h
[1] = test system: DLD-1
[2] = test system: DMS-114
[3] = test system: KM-20L2
[4] = test system: LXFL 529
[5] = test system: M19-MEL
[6] = test system: RXF 631
[7] = test system: SNB-78
[8] = test system: HOP-18
[9] = test system: XF498

SMILES	GI50 [1]	GI50 [2]	GI50 [3]	GI50 [4]	GI50 [5]	GI50 [6]	GI50 [7]	GI50 [8]	GI50 [9]
CCCCCC(=O)OC[n+]1ccc2c(C)c3[nH]c4ccccc4c3c(C)c2c1	0.45 µM (active)	1.02 µM (active)	0.612 µM (active)	1.02 µM (active)	1.02 µM (active)	0.408 µM (active)	0.995 µM (active)		
Cc1cc(N(CCC#N)CCC#N)ccc1/C=C(\NC(=O)/C=C/c1ccccc1)C(=O)Nc1ccc(Cl)cc1	5.58 µM (inactive)	1.62 µM (inactive)		0.0991 µM (active)	0.944 µM (active)	> 100 µM (inactive)	> 100 µM (inactive)	> 100 µM (inactive)	> 100 µM (inactive)
CC(C)(Oc1ccc(C(=O)c2ccc(Cl)cc2)cc1Cl)C(=O)Nc1c(Cl)cccc1Cl	> 100 µM (inactive)	8.75 µM (inactive)	> 100 µM (inactive)	> 100 µM (inactive)	> 100 µM (inactive)		> 100 µM (inactive)	> 100 µM (inactive)	> 100 µM (inactive)
CN(C(=O)c1cccs1)C(=S)N1CCN(c2ccccn2)CC1	> 100 µM (inactive)	> 100 µM (inactive)	> 100 µM (inactive)	> 100 µM (inactive)	> 100 µM (inactive)		> 100 µM (inactive)	> 100 µM (inactive)	> 100 µM (inactive)
C/C(=N\NC(=O)CC(=O)Nc1ccc(C)cc1)c1cc2ccccc2oc1=O	> 100 µM (inactive)	> 100 µM (inactive)	> 100 µM (inactive)		> 100 µM (inactive)			68.2 µM (inactive)	1.67 µM (inactive)
O=C(O)C1=C(C(=O)O)Oc2ccccc2O1	> 100 µM (inactive)	> 100 µM (inactive)	> 100 µM (inactive)	> 100 µM (inactive)	> 100 µM (inactive)		> 100 µM (inactive)	> 100 µM (inactive)	> 100 µM (inactive)
CN(C)C(=S)NC(=S)Nc1ccc2ccccc2c1			10 µM (inactive)	2.07 µM (inactive)			23.7 µM (inactive)		16.1 µM (inactive)
O=C1CCCCCCCCCCC(=O)N2CCOCCOCCN1Cc1cccc(n1)C2	> 100 µM (inactive)	> 100 µM (inactive)	> 100 µM (inactive)	> 100 µM (inactive)	> 100 µM (inactive)	> 100 µM (inactive)	> 100 µM (inactive)		
CC(=O)OC(C)(C)[C@@H]1CC[C@]2(C)/C=C/[C@H](C)C[C@@H](O)C3=C(C)C[C@@H](O3)C12 (some centres not stated)	> 100 µM (inactive)	> 100 µM (inactive)	> 100 µM (inactive)	> 100 µM (inactive)	> 100 µM (inactive)	> 100 µM (inactive)	> 100 µM (inactive)	> 100 µM (inactive)	
O=C(COc1ccc(Br)cc1Br)N1N=C(c2ccc([N+](=O)[O-])o2)CC1(O)c1ccccc1 (configuration not stated)	10.7 µM (inactive)	6.11 µM (inactive)	17.9 µM (inactive)	8.73 µM (inactive)			27.2 µM (inactive)	8.75 µM (inactive)	
O=C1/C(=C/c2ccc3c(c2)OCCO3)CCC/C1=C\c1ccc2c(c1)OCCO2	15.8 µM (inactive)		10.8 µM (inactive)	37.5 µM (inactive)	18.2 µM (inactive)		26.8 µM (inactive)	23.9 µM (inactive)	
CC1C[C@@]2(c3ccccc3)C(=O)CCC[C@H]2N1 (some centres not stated)	> 100 µM (inactive)	> 100 µM (inactive)	> 100 µM (inactive)	> 100 µM (inactive)	> 100 µM (inactive)		> 100 µM (inactive)		
CN(C)CCN(C)CCC(=O)/C=C/c1ccccc1	19.5 µM (inactive)	30.2 µM (inactive)	56.2 µM (inactive)	17.7 µM (inactive)	20.2 µM (inactive)		31 µM (inactive)	> 100 µM (inactive)	22.2 µM (inactive)
Cc1ccc(C)c2c1C1CCCCC3(OCCCO3)C21O (configuration not stated)	> 100 µM (inactive)	80 µM (inactive)	> 100 µM (inactive)	> 100 µM (inactive)	> 100 µM (inactive)		> 100 µM (inactive)	17.1 µM (inactive)	
O=C1c2ccccc2C(=O)C2C1C1C(=O)c3ccccc3C(=O)C21 (configuration not stated)	15.2 µM (inactive)	> 100 µM (inactive)	> 100 µM (inactive)	> 100 µM (inactive)	45.4 µM (inactive)	> 100 µM (inactive)		8.69 µM (inactive)	
N#CCCN(C1=NN(C(=O)CC(=O)Nc2ccc(Cl)cc2)C(c2ccccc2)C1)c1ccc(Cl)cc1 (configuration not stated)	> 100 µM (inactive)	> 100 µM (inactive)	> 100 µM (inactive)	> 100 µM (inactive)	> 100 µM (inactive)	> 100 µM (inactive)	40.4 µM (inactive)	> 100 µM (inactive)	> 100 µM (inactive)
O=C(CCN1CCCCC1)Nc1ccc2c(c1)C(=O)c1ccc(NC(=O)CCN3CCCCC3)cc1C2=O	2.92 µM (inactive)	17.6 µM (inactive)	18 µM (inactive)	1.88 µM (inactive)	43.1 µM (inactive)		15.3 µM (inactive)	17 µM (inactive)	
CC1C(=O)O[C@H]2C1CC[C@@]1(C)[C@H](O)CC[C@@]13C[C@]2(O)OO3 (some centres not stated)	> 100 µM (inactive)	> 100 µM (inactive)	> 100 µM (inactive)	> 100 µM (inactive)	> 100 µM (inactive)			> 100 µM (inactive)	
CN(C)c1ccc(/C=C/c2ccc(/C=C/c3ccc(N(C)C)cc3)cc2)cc1	33.6 µM (inactive)		> 100 µM (inactive)	75.9 µM (inactive)	> 100 µM (inactive)	> 100 µM (inactive)	> 100 µM (inactive)	> 100 µM (inactive)	
COc1ccc(CNc2cnc3ccc(N)cc3n2)cc1OC	> 100 µM (inactive)	47.3 µM (inactive)			64.3 µM (inactive)		> 100 µM (inactive)	0.548 µM (active)	> 100 µM (inactive)
O=c1sc(-c2nc3ccccc3[nH]2)c(/N=C/c2ccccc2)n1-c1ccccc1	> 100 µM (inactive)			30.3 µM (inactive)	94.2 µM (inactive)		35.5 µM (inactive)	67 µM (inactive)	31.2 µM (inactive)
Cc1nc(-n2nc(-c3ccccc3)cc2-c2ccccc2)sc1C(=O)/C=C/c1cccc([N+](=O)[O-])c1	12 µM (inactive)	11.6 µM (inactive)	17.8 µM (inactive)		16.4 µM (inactive)		52.7 µM (inactive)	12.1 µM (inactive)	
O=C(NO)c1ccc(O)c(O)c1	> 100 µM (inactive)	55.1 µM (inactive)	> 100 µM (inactive)	> 100 µM (inactive)	> 100 µM (inactive)	> 100 µM (inactive)	> 100 µM (inactive)	72.3 µM (inactive)	> 100 µM (inactive)
C=CCC(N(C)C(=O)[C@H](Cc1ccccc1)NC(=O)OCc1ccccc1)P(=O)(Oc1ccccc1)Oc1ccccc1 (some centres not stated)	> 100 µM (inactive)	5.62 µM (inactive)	> 100 µM (inactive)	6.79 µM (inactive)	> 100 µM (inactive)		> 100 µM (inactive)		> 100 µM (inactive)
